{"source": "patent US11427548B2", "about": "(Arvinas Operations, Inc., priority 2015, dated 2022)", "biological_target": "T1, Androgen Receptor (Homo sapiens, UniProt P10275)", "T1 construct": "endogenous in cells; host or cells: VCaP cells", "T1 sequence (P10275 1-920)": "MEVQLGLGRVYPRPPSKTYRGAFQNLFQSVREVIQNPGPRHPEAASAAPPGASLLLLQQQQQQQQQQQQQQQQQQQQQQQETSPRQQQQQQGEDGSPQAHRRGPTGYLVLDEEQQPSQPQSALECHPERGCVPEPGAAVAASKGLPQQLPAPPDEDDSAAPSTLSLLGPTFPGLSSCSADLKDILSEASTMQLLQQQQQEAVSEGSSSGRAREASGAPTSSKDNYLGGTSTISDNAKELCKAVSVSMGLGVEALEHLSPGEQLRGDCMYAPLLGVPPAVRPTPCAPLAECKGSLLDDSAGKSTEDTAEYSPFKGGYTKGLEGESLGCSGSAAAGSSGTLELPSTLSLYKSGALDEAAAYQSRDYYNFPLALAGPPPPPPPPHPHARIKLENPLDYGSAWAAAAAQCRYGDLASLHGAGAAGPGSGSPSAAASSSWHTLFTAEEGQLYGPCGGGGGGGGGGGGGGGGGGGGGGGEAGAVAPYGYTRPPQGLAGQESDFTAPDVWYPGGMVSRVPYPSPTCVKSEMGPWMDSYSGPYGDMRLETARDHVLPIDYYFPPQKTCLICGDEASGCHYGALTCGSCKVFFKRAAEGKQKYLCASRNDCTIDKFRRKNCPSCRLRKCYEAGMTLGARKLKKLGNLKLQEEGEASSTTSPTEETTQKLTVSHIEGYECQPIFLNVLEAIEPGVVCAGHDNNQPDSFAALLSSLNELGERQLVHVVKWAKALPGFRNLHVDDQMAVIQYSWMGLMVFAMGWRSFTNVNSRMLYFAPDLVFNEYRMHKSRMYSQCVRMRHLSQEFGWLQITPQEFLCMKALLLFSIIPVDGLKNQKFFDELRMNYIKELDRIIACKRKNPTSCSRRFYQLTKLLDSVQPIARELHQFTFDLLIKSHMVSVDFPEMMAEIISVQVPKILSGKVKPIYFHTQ", "assay": "Androgen Receptor ELISA assay (PathScan AR ELISA) in VCaP cells: AR degradation, Dmax and DC50", "assay_type": "cell-based", "procedure,_shortened": "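VCaP cells, 30,000/well, grown ≥3 days in phenol red-free RPMI with 5% charcoal-stripped FBS; compound added in 0.1% DMSO with 0.1 nM R1881, 7 half-log doses, 24 h. Lysate AR quantified by PathScan sandwich ELISA, HRP/TMB read at 450 nm, giving DC50 and Dmax.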", "key": {"[1]": {"conditions": "read-out: VCaP DC50; concentration that caused 50% Androgen Receptor degradation, VCaP cells (Table 32)"}, "[2]": {"conditions": "VCaP cells; Table 36; read-out: VCaP DC50"}}, "note": "Where two headings read alike, the source gives them in different places."}
{"smiles": "Cn1cncc1-c1ccc(CNC(=O)[C@@H]2C[C@@H](O)CN2C(=O)[C@@H](NC(=O)COCCCCOc2ccc(-c3ccc(N4C(=S)N(c5ccc(C#N)c(C(F)(F)F)c5)C(=O)C4(C)C)cc3)cc2)C(C)(C)C)cc1", "note": "[Example 104, (2S,4R)-1-[(2S)-2-(2-{4-[4-(4-{3-[4-cyano-3-(trifluoromethyl)phenyl]-5,5-dimethyl-4-oxo-2-sulfanylideneimidazolidin-1-yl}phenyl)phenoxy]butoxy}acetamido)-3,3-dimethylbutanoyl]-4-hydroxy-N-{[4-(1-methyl-1H-imidazol-5-yl)phenyl]methyl}pyrrolidine-2-carboxamide]", "values": [{"measurement": "Dmax", "setting": "VCaP, read-out: VCaP Dmax (%)", "value": "> 71", "unit": "%"}, {"measurement": "DC50", "setting": "[1]", "value": "< 50", "unit": "nM"}]}
{"smiles": "Cc1ncsc1-c1ccc([C@H](C)NC(=O)C2C[C@@H](O)CN2C(=O)[C@@H](NC(=O)COCCN2C3CCC2CN(c2ccc(C(=O)NC4C(C)(C)C(Oc5ccc(C#N)c(Cl)c5)C4(C)C)cn2)C3)C(C)(C)C)cc1", "note": "(stereo partly drawn) [Example 787, N-((1r,3r)-3-(3-chloro-4-cyanophenoxy)-2,2,4,4-tetramethylcyclobutyl)-6-(8-(2-(2-(((2S)-1-((4R)-4-hydroxy-2-(((S)-1-(4-(4-methylthiazol-5-yl)phenyl)ethyl)carbamoyl)pyrrolidin-1-yl)-3,3-dimethyl-1-oxobutan-2-yl)amino)-2-oxoethoxy)ethyl)-3,8-diazabicyclo[3.2.1]octan-3-yl)nicotinamide]", "values": [{"measurement": "VCaP Dmax (%)", "setting": "VCaP cells; Table 36", "value": "++++ (71% ≤ Dmax)"}, {"measurement": "DC50", "setting": "[2]", "value": "< 50", "unit": "nM"}]}
{"smiles": "Cc1nccn1-c1ccc([C@H](C)NC(=O)[C@@H]2C[C@@H](O)CN2C(=O)C(C(C)C)n2cc(OCCCOCCCCCOc3ccc(N4C(=S)N(c5ccc(C#N)c(C(F)(F)F)c5)C(=O)C4(C)C)cc3)cn2)nc1", "note": "(mixture of isomers) [Example 423]", "values": [{"measurement": "Dmax", "setting": "VCaP, read-out: VCaP Dmax (%)", "value": "< 25", "unit": "%"}, {"measurement": "DC50", "setting": "read-out: VCaP DC50; VCaP cells; Table 35", "value": "> 501", "unit": "nM"}]}
{"smiles": "Cc1ncsc1-c1ccc(CNC(=O)[C@@H]2C[C@@H](O)CN2C(=O)[C@@H](NC(=O)COC[C@@H](O)[C@H](O)COc2ccc(C(=O)N[C@H]3C(C)(C)[C@H](Oc4ccc(C#N)c(Cl)c4)C3(C)C)cc2)C(C)(C)C)cc1", "note": "[Example 563]", "values": [{"measurement": "DC50", "setting": "VCaP cells; Table 35; read-out: VCaP DC50", "value": "< 50", "unit": "nM"}, {"measurement": "Dmax", "setting": "VCaP, VCaP cells; Table 35; read-out: VCaP Dmax (%)", "value": "51 to 70", "unit": "%"}]}
{"smiles": "Cc1ncsc1-c1ccc([C@H](C)NC(=O)[C@@H]2C[C@@H](O)CN2C(=O)[C@@H](NC(=O)CN2C3CCC2CN(CCCc2ccc(C(=O)N[C@H]4C(C)(C)[C@H](Oc5ccc(C#N)c(Cl)c5)C4(C)C)cn2)C3)C(C)(C)C)cc1", "note": "[Example 839, N-((1r,3r)-3-(3-chloro-4-cyanophenoxy)-2,2,4,4-tetramethylcyclobutyl)-6-(3-(8-(2-(((S)-1-((2S, 4R)-4-hydroxy-2-(((S)-1-(4-(4-methylthiazol-5-yl)phenyl)ethyl)carbamoyl)pyrrolidin-1-yl)-3,3-dimethyl-1-oxobutan-2-yl)amino)-2-oxoethyl)-3,8-diazabicyclo[3.2.1]octan-3-yl)propyl) nicotinamide]", "values": [{"measurement": "Dmax", "setting": "VCaP, read-out: VCaP Dmax (%)", "value": "51 to 70", "unit": "%"}, {"measurement": "DC50", "setting": "read-out: VCaP DC50; VCaP cells; Table 36", "value": "< 50", "unit": "nM"}]}
{"smiles": "CC(C)(C)[C@H](NC(=O)COCCCCOc1ccc(-c2ccc(N3C(=S)N(c4ccc(C#N)c(Cl)c4)C(=O)C3(C)C)c(F)c2)cc1)C(=O)N1C[C@H](O)C[C@H]1C(=O)NCc1ccc(-c2cnco2)cc1", "note": "[Example 106, (2S,4R)-1-[(2S)-2-{2-[4-(4-{4-[3-(3-chloro-4-cyanophenyl)-5,5-dimethyl-4-oxo-2-sulfanylideneimidazolidin-1-yl]-3-fluorophenyl}phen-oxy)butoxy]acetamido}-3,3-dimethylbutanoyl]-4-hydroxy-N-{[4-(1,3-oxazol-5-yl)phenyl]methyl}pyrrolidine-2-carboxamide]", "values": [{"measurement": "Dmax", "setting": "VCaP, read-out: VCaP Dmax (%)", "value": "> 71", "unit": "%"}, {"measurement": "DC50", "setting": "[1]", "value": "< 50", "unit": "nM"}]}
{"smiles": "Cc1ncsc1-c1ccc([C@H](C)NC(=O)[C@@H]2C[C@@H](O)CN2C(=O)[C@@H](NC(=O)COCCCOCCCCCOc2ccc(C(=O)N[C@H]3C(C)(C)[C@H](Oc4ccc(C#N)c(Cl)c4)C3(C)C)cc2)C(C)(C)C)cc1", "note": "[Example 635, (2S,4R)-1-((S)-2-(2-(3-((5-(4-(((1r,3r)-3-(3-chloro-4-cyanophenoxy)-2,2,4,4-tetramethylcyclobutyl)carbamoyl)phenoxy)pen-tyl)oxy)propoxy)aceta-mido)-3,3-dimethylbutanoyl)-4-hydroxy-N-((S)-1-(4-(4-methylthiazol-5-yl)phenyl)ethyl)pyrrolidine-2-carboxamide]", "values": [{"measurement": "DC50", "setting": "[2]", "value": "< 50", "unit": "nM"}, {"measurement": "Dmax", "setting": "VCaP, read-out: VCaP Dmax (%), VCaP cells; Table 36", "value": "51 to 70", "unit": "%"}]}
{"smiles": "Cc1ncoc1-c1ccc([C@H](C)NC(=O)[C@@H]2C[C@@H](O)CN2C(=O)[C@@H](NC(=O)COCCCCNc2ccc(C(=O)N[C@H]3C(C)(C)[C@H](Oc4ccc(C#N)c(Cl)c4)C3(C)C)cc2)C(C)(C)C)cc1", "note": "[Example 411]", "values": [{"measurement": "DC50", "setting": "VCaP cells; Table 34; read-out: VCaP DC50", "value": "< 50", "unit": "nM"}, {"measurement": "Dmax", "setting": "VCaP, VCaP cells; Table 34; read-out: VCaP Dmax (%)", "value": "> 71", "unit": "%"}]}
{"smiles": "Cc1ncoc1-c1ccc([C@H](C)NC(=O)[C@@H]2C[C@@H](O)CN2C(=O)[C@@H](NC(=O)COCCCCOc2ccc(-c3ccc(N4C(=S)N(c5ccc(C#N)c(C(F)(F)F)c5)C(=O)C4(C)C)c(F)c3)cc2)C(C)(C)C)cc1", "note": "[Example 138, (2S,4R)-1-[(2S)-2-(2-{4-[4-(4-{3-[4-cyano-3-(trifluoromethyl)phenyl]-5,5-dimethyl-4-oxo-2-sulfanylideneimidazolidin-1-yl}-3-fluorophenyl)phen-oxy]butoxy}acetamido)-3,3-dimethylbutanoyl]-4-hydroxy-N-[(1S)-1-[4-(4-methyl-1,3-oxazol-5-yl)phenyl]ethyl]pyrrolidine-2-carboxamide]", "values": [{"measurement": "Dmax", "setting": "VCaP, read-out: VCaP Dmax (%)", "value": "> 71", "unit": "%"}, {"measurement": "DC50", "setting": "[1]", "value": "< 50", "unit": "nM"}]}
{"smiles": "COc1cc(N2C(=O)C(C)(C)N(c3ccc(-c4ccc(OCCCCOCC(=O)N[C@H](C(=O)N5C[C@H](O)C[C@H]5C(=O)NCc5ccc(-c6ocnc6C)cc5)C(C)(C)C)cc4)cc3)C2=S)ccc1C#N", "note": "[Example 115, (2S,4R)-1-[(2S)-2-{2-[4-(4-{4-[3-(4-cyano-3-methoxyphenyl)-5,5-dimethyl-4-oxo-2-sulfanylideneimidazolidin-1-yl]phenyl}phenoxy)butoxy]acetamido}-3,3-dimethylbutanoyl]-4-hydroxy-N-{[4-(4-methyl-1,3-oxazol-5-yl)phenyl]methyl}pyrrolidine-2-carboxamide]", "values": [{"measurement": "Dmax", "setting": "VCaP, highest percentage of Androgen Receptor degradation observed, VCaP cells (Table 32); read-out: VCaP Dmax (%)", "value": "> 71", "unit": "%"}, {"measurement": "DC50", "setting": "concentration that caused 50% Androgen Receptor degradation, VCaP cells (Table 32); read-out: VCaP DC50", "value": "< 50", "unit": "nM"}]}
{"smiles": "Cc1ncsc1-c1ccc(CNC(=O)[C@@H]2C[C@@H](O)CN2C(=O)[C@@H](NC(=O)COCCC[C@@H](C)Oc2ccc(-c3ccc(N4C(=S)N(c5ccc(C#N)c(C(F)(F)F)c5)C(=O)C4(C)C)cc3)cc2)C(C)(C)C)cc1", "note": "[Example 141, (2S,4R)-1-[(2S)-2-(2-{[(4S)-4-[4-(4-{3-[4-cyano-3-(trifluoromethyl)phenyl]-5,5-dimethyl-4-oxo-2-sulfanylideneimidazolidin-1-yl}phenyl)phen-oxy]pentyl]oxy}acetamido)-3,3-dimethylbutanoyl]-4-hydroxy-N-{[4-(4-methyl-1,3-thiazol-5-yl)phenyl]methyl}pyrrolidine-2-carboxamide]", "values": [{"measurement": "Dmax", "setting": "VCaP, read-out: VCaP Dmax (%)", "value": "> 71", "unit": "%"}, {"measurement": "DC50", "setting": "[1]", "value": "< 50", "unit": "nM"}]}
{"smiles": "Cc1n[nH]cc1-c1ccc(CNC(=O)[C@@H]2C[C@@H](O)CN2C(=O)[C@@H](NC(=O)COCCCOCCCCOc2ccc(N3C(=S)N(c4ccc(C#N)c(C(F)(F)F)c4)C(=O)C3(C)C)cc2)C(C)(C)C)cc1", "note": "[Example 377]", "values": [{"measurement": "Dmax", "setting": "VCaP, read-out: VCaP Dmax (%)", "value": "51 to 70", "unit": "%"}, {"measurement": "DC50", "setting": "read-out: VCaP DC50; VCaP cells; Table 34", "value": "51 to 500", "unit": "nM"}]}
{"smiles": "Cc1ncsc1-c1ccc(CNC(=O)[C@@H]2C[C@@H](O)CN2C(=O)[C@H](C(C)C)N2Cc3ccccc3C2=O)c(OCCN2CCN(c3ccc(C(=O)N[C@H]4C(C)(C)[C@H](Oc5ccc(C#N)c(Cl)c5)C4(C)C)cn3)CC2)c1", "note": "[Example 732, N-((1r,3r)-3-(3-chloro-4-cyanophenoxy)-2,2,4,4-tetramethylcyclobutyl)-6-(4-(2-(2-(((2S,4R)-4-hydroxy-1-((S)-3-methyl-2-(1-oxoisoindolin-2-yl)butanoyl)pyrrolidine-2-carboxamido)methyl)-5-(4-methylthiazol-5-yl)phenoxy)ethyl)piper-azin-1-yl)nicotinamide]", "values": [{"measurement": "DC50", "setting": "[2]", "value": "< 50", "unit": "nM"}, {"measurement": "Dmax", "setting": "VCaP, VCaP cells; Table 36; read-out: VCaP Dmax (%)", "value": "> 71", "unit": "%"}]}
